The text below walks through data of patent US20080199413A1, “Novel Use of Organic Compounds” (priority 2005, published 2008).

The test system of the assay is human dermal fibroblasts. Briefly: UV-A radiation-induced mtDNA common deletion in human dermal fibroblasts (nested PCR). The following applies: for Protection of fibroblasts against the UV-A radiation-induced generation of the common deletion (in words): overall finding of 3 experiments; for Prevalence of mtDNA deletion relative to untreated cells: representative experiment. In kind it is cell-based. The text has this:
Sunlight (Systems Dr. […]) irradiation device. […] The cells were then harvested by trypsinisation. […] Dermatol. […] (7293-7316); [NT] (13928-13905); [NT] (7901-7920); [NT] (13650-13631); [NT] (219-238); C2, [NT]

The mark [1] stands for this setting: UV-A radiation + 0.25 μM carotenoid, after 1 week.
[2] abbreviates: UV-A radiation + 0.5 μM carotenoid, after 1 week.
Setting [3] is: UV-A radiation + 1.0 μM carotenoid, after 1 week.
Setting [4] is: UV-A radiation + 2.0 μM carotenoid, after 1 week.
The mark [5] stands for this setting: UV-A radiation + 3.0 μM carotenoid, after 1 week.
Setting [6] is: all doses tested (0.25-3 μM), after 1 week.

On to `CC1=C(/C=C/C(C)=C/C=C/C(C)=C/C=C/C=C(C)/C=C/C=C(C)/C=C/C2=C(C)C[C@@H](O)CC2(C)C)C(C)(C)C[C@H](O)C1` [Zeaxanthin, zeaxanthin, reference compound], for which the “Protection of fibroblasts against the UV-A radiation-induced generation of the common deletion (in words)” value (“Protection of fibroblasts” for short) is “no effect”.
As for `CC1=C[C@H](O)CC(C)(C)[C@H]1/C=C/C(C)=C/C=C/C(C)=C/C=C/C=C(C)/C=C/C=C(C)/C=C/C1=C(C)C[C@@H](O)CC1(C)C` [lutein], the “Protection of fibroblasts” value is given as “found to protect”. Besides, the “Prevalence of mtDNA deletion relative to untreated cells” value under setting [1] was determined as 0.98. Moreover, the “Prevalence of mtDNA deletion relative to untreated cells” value under setting [2] is on record as 0.27. The “Prevalence of mtDNA deletion relative to untreated cells” value under setting [3] was 0.71. For the same molecule, the “Prevalence of mtDNA deletion relative to untreated cells” value under setting [4] is 0.37. Also, under setting [5], the “Prevalence of mtDNA deletion relative to untreated cells” value worked out at 0.59. Also, under setting [6], the “Effect on UV-A radiation-induced formation of the common deletion (in words)” value was “completely prevented”.
For `CC(C)=CCC/C(C)=C/C=C/C(C)=C/C=C/C(C)=C/C=C/C=C(C)/C=C/C=C(C)/C=C/C=C(\C)CCC=C(C)C` [lycopene], the “Protection of fibroblasts” value is listed as “consistently found to protect”. Further, the “Prevalence of mtDNA deletion relative to untreated cells” value under setting [1] came to 2.90. Also, under setting [2], the “Prevalence of mtDNA deletion relative to untreated cells” value worked out at 1.22. In addition, the “Prevalence of mtDNA deletion relative to untreated cells” value under setting [3] was found to be 1.53. Moreover, the “Prevalence of mtDNA deletion relative to untreated cells” value under setting [4] amounted to 1.53. The “Prevalence of mtDNA deletion relative to untreated cells” value under setting [5] was found to be 2.52. Further, the “Effect on UV-A radiation-induced formation of the common deletion (in words)” value under setting [6] is “inhibits”. The “Effect on UV-A radiation-induced formation of the common deletion (in words)” value (at 0.5, 1 μM and 2 μM, after 1 week) is “Complete protection”.
As to `CC1=C(/C=C/C(C)=C/C=C/C(C)=C/C=C/C=C(C)/C=C/C=C(C)/C=C/C2=C(C)C[C@@H](O)CC2(C)C)C(C)(C)CCC1` [β-cryptoxanthin], the “Prevalence of mtDNA deletion relative to untreated cells” value (UV-A radiation + 0.1 μM carotenoid, after 2 weeks) was 0.80; the “Prevalence of mtDNA deletion relative to untreated cells” value (UV-A radiation + 0.25 μM carotenoid, after 2 weeks) was 0.64; the “Prevalence of mtDNA deletion relative to untreated cells” value (UV-A radiation + 0.5 μM carotenoid, after 2 weeks) worked out at 0.25; the “Prevalence of mtDNA deletion relative to untreated cells” value (UV-A radiation + 1.0 μM carotenoid, after 2 weeks) stood at 0.62; the “Prevalence of mtDNA deletion relative to untreated cells” value (UV-A radiation + 2.0 μM carotenoid, after 2 weeks) was 0.25; the “Prevalence of mtDNA deletion relative to untreated cells” value (UV-A radiation + 3.0 μM carotenoid, after 2 weeks) was found to be 1.03. Moreover, the “Effect on UV-A radiation-induced induction of the common deletion (in words)” value (all concentrations tested, after 2 weeks) is reported as “abrogated”.
